From patent publication US10195044B2, “Intervertebral disc implant” (Sinai Health System, priority 2013, dated 2019) come the findings set out here.

This test relates to sheep PDCs. Put plainly: ALP activity of predifferentiated chondrocytes cultured on CPP substrates.

Consider `N[C@@H](Cc1cc(I)c(Oc2ccc(O)c(I)c2)c(I)c1)C(=O)O` [T3, triiodothyronine], for which the ALP activity result (3 nM T3, absence of dexamethasone, 1 week on CPP substrates) is on record as “maximized”. The “ALP activity level over 2 week culture” value (continuous 3 nM T3 treatment, maintained up to day 14) was “significantly increased by day 4”.
